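Test compounds were applied to cells in 96-well plates for 48 hours at 5 doses. GI50: concentration for 50% inhibition of growth.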 Calls of active or inactive are those of the source. Cut-off read from the data, not from the text of the source: active = GI50 up to about 1.1 µM and inactive = higher. Peptide text beside a SMILES is read from it.
Tests used:
Assay in all cases: inhibition of tumour cell growth, NCI panel, 48 h
A549 = system: A549
SF-268 = system: SF-268
HCT-116 = system: HCT-116
Hs-578T = system: Hs-578T
NCI-H23 = system: NCI-H23
TK-10 = system: TK-10
CCRF-CEM = system: CCRF-CEM
SK-MEL-5 = system: SK-MEL-5
HOP-62 = system: HOP-62
NCI-H226 = system: NCI-H226
SF-295 = system: SF-295
HCT-15 = system: HCT-15
NCI-H522 = system: NCI-H522
HCC 2998 = system: HCC 2998
Malme-3M = system: Malme-3M
OVCAR-8 = system: OVCAR-8
BT-549 = system: BT-549
HOP-92 = system: HOP-92
PC-3 = system: PC-3
DU-145 = system: DU-145

Structure (SMILES)	GI50 (A549)	GI50 (SF-268)	GI50 (HCT-116)	GI50 (Hs-578T)	GI50 (NCI-H23)	GI50 (TK-10)	GI50 (CCRF-CEM)	GI50 (SK-MEL-5)	GI50 (HOP-62)	GI50 (NCI-H226)	GI50 (SF-295)	GI50 (HCT-15) [µM]	GI50 (NCI-H522)	GI50 (HCC 2998)	GI50 (Malme-3M)	GI50 (OVCAR-8)	GI50 (BT-549)	GI50 (HOP-92)	GI50 (PC-3)	GI50 (DU-145)
CCOC(=O)c1nc2ccccc2nc1NCc1cc(OC)c(OC)c(OC)c1	37.8 µM (inactive)	> 100 µM (inactive)	36.1 µM (inactive)	42.9 µM (inactive)	> 100 µM (inactive)	> 100 µM (inactive)	39.9 µM (inactive)	26.9 µM (inactive)	55.1 µM (inactive)	83 µM (inactive)	54.1 µM (inactive)	30.3	33 µM (inactive)	53.7 µM (inactive)	29.6 µM (inactive)	58.1 µM (inactive)	34.8 µM (inactive)	34.3 µM (inactive)	25.2 µM (inactive)	> 100 µM (inactive)
Cc1ccc([S@+]([O-])c2occc2C=O)cc1	19.6 µM (inactive)	5.38 µM (inactive)	3.03 µM (inactive)	16.4 µM (inactive)	14.5 µM (inactive)	14.3 µM (inactive)	1.64 µM (inactive)	10.4 µM (inactive)	17.5 µM (inactive)	19.4 µM (inactive)	17.7 µM (inactive)	3.49	15.4 µM (inactive)	14.5 µM (inactive)	3.7 µM (inactive)	9.93 µM (inactive)	12 µM (inactive)	3.27 µM (inactive)	5.02 µM (inactive)	19 µM (inactive)
COC(=O)[C@@H]1C[C@@]23CCCN4CC[C@@]5(c6cccc(OC)c6N(C=O)[C@]15CC2)[C@@H]43	> 100 µM (inactive)	> 100 µM (inactive)	> 100 µM (inactive)	> 100 µM (inactive)	> 100 µM (inactive)	> 100 µM (inactive)	> 100 µM (inactive)	> 100 µM (inactive)	> 100 µM (inactive)	> 100 µM (inactive)	> 100 µM (inactive)	> 100	> 100 µM (inactive)	> 100 µM (inactive)	> 100 µM (inactive)	> 100 µM (inactive)	> 100 µM (inactive)	> 100 µM (inactive)	> 100 µM (inactive)	> 100 µM (inactive)
C=C1C(=O)OC2CC(C)C(C(CC(C)=O)OC(C)=O)=CCC12 (stereo not given)	28.2 µM (inactive)	22.5 µM (inactive)	1.79 µM (inactive)	> 100 µM (inactive)	17.2 µM (inactive)	17.3 µM (inactive)	2.61 µM (inactive)	14.2 µM (inactive)	21 µM (inactive)	34.1 µM (inactive)	23.8 µM (inactive)	2.75	1.73 µM (inactive)	10.5 µM (inactive)	2.02 µM (inactive)	18.9 µM (inactive)	6.19 µM (inactive)	6.87 µM (inactive)	19.3 µM (inactive)	16.5 µM (inactive)
CCOC(=O)c1cn2c(n1)sc1cc(F)ccc12	> 100 µM (inactive)	82.2 µM (inactive)	50.6 µM (inactive)	64.3 µM (inactive)	> 100 µM (inactive)	> 100 µM (inactive)	> 100 µM (inactive)	> 100 µM (inactive)	29.5 µM (inactive)	> 100 µM (inactive)	74.8 µM (inactive)	> 100	> 100 µM (inactive)	> 100 µM (inactive)	> 100 µM (inactive)	> 100 µM (inactive)	77.6 µM (inactive)	> 100 µM (inactive)	> 100 µM (inactive)	> 100 µM (inactive)
CS(=O)(=O)O.[Ag]	10.3 µM (inactive)	16 µM (inactive)	5.04 µM (inactive)	37.7 µM (inactive)	23.2 µM (inactive)	2.42 µM (inactive)	2.46 µM (inactive)	5.3 µM (inactive)	25.4 µM (inactive)	25.1 µM (inactive)	34.2 µM (inactive)	18.7	1.92 µM (inactive)	14.2 µM (inactive)	1.92 µM (inactive)	31.6 µM (inactive)	20.8 µM (inactive)	2.14 µM (inactive)	14.2 µM (inactive)	17.1 µM (inactive)
COc1ccc(NS(=O)(=O)c2ccc3ncn(NS(=O)(=O)c4ccc(I)cc4)c(=O)c3c2)cc1	> 100 µM (inactive)	> 100 µM (inactive)	> 100 µM (inactive)	> 100 µM (inactive)	> 100 µM (inactive)	> 100 µM (inactive)	64.7 µM (inactive)	> 100 µM (inactive)	> 100 µM (inactive)	9.86 µM (inactive)	> 100 µM (inactive)	> 100	> 100 µM (inactive)	> 100 µM (inactive)	> 100 µM (inactive)	> 100 µM (inactive)	> 10 µM (inactive)	> 100 µM (inactive)	> 100 µM (inactive)	> 100 µM (inactive)
O=P1(NCCCl)OCCC(OO)N1CCCl (stereo not given)	> 71.9 µM (inactive)	35.2 µM (inactive)	15.8 µM (inactive)	50.4 µM (inactive)	28.4 µM (inactive)	20 µM (inactive)	9.44 µM (inactive)	93.5 µM (inactive)	52.4 µM (inactive)	> 100 µM (inactive)	1.72 µM (inactive)	18	11.5 µM (inactive)	> 100 µM (inactive)	17.3 µM (inactive)	46.1 µM (inactive)	39.5 µM (inactive)	16.8 µM (inactive)	68.5 µM (inactive)	54 µM (inactive)
C=C(CN(C)C)C(=O)c1ccc(OC)cc1	18.2 µM (inactive)	6.05 µM (inactive)	1.58 µM (inactive)	15.5 µM (inactive)	7.4 µM (inactive)	2.24 µM (inactive)	0.186 µM (active)	8.24 µM (inactive)	21.7 µM (inactive)	6.76 µM (inactive)	28.5 µM (inactive)	1.76	0.267 µM (active)	14.2 µM (inactive)	1.48 µM (inactive)	1.07 µM (active)	6.56 µM (inactive)	1.32 µM (inactive)	15.2 µM (inactive)	4.97 µM (inactive)
CCC(C)C(NC(=O)C(NC(=O)C(CC(N)=O)NC(=O)CN)C(C)O)C(=O)NC(C(=O)NC(C)C(=O)NC(C(=O)NC(CCC(=O)O)C(=O)NC(CC(C)C)C(=O)NC(CC(=O)O)C(=O)NC(C(=O)NC(Cc1ccc(O)cc1)C(=O)N1CCCC1C(=O)O)C(C)O)C(C)C)C(C)C (stereo not given) (H-GNTIVAVELDTYP-OH; configuration not given here)	> 50 µM (inactive)	> 50 µM (inactive)	> 50 µM (inactive)	> 50 µM (inactive)	> 50 µM (inactive)	> 50 µM (inactive)	> 50 µM (inactive)	> 50 µM (inactive)	> 50 µM (inactive)	> 50 µM (inactive)	> 50 µM (inactive)	> 50	> 50 µM (inactive)	> 50 µM (inactive)	> 50 µM (inactive)	> 50 µM (inactive)	> 50 µM (inactive)	> 50 µM (inactive)	> 50 µM (inactive)	> 50 µM (inactive)
CCC(CO)Nc1nc(NCc2ccccc2)c2ncn(C(C)C)c2n1 (stereo not drawn) [(RS)-ROSCOVITINE]	23.3 µM (inactive)	13.7 µM (inactive)	8.38 µM (inactive)	4.58 µM (inactive)	13.6 µM (inactive)	24.4 µM (inactive)	22.6 µM (inactive)	15.8 µM (inactive)	11.9 µM (inactive)	15 µM (inactive)	19.3 µM (inactive)	17.9	16.5 µM (inactive)	15.3 µM (inactive)	25.7 µM (inactive)	16.7 µM (inactive)	18.5 µM (inactive)	17.2 µM (inactive)	17.9 µM (inactive)	35.8 µM (inactive)

— ChEMBL document CHEMBL1201862, “PubChem BioAssay data set” (2004)
